For orientation: EC50 means the concentration that produces a half-maximal response. A high value points to weaker potency. One may read the inhibition as the relative decrease from the control value, in per cent. Higher therefore signals a response far below the control.

One assay addresses full-length HAQ STING (Homo sapiens (Human), UniProt Q86WV6, G230A/H232R/R293Q/R71H). Description: 3H-cGAMP filtration binding assay (HAQ STING). Conditions: competition with tritiated cGAMP, HAQ STING membrane. From the text:
The ability of compounds to bind STING is quantified by the ability to compete with tritiated cGAMP ligand for human STING receptor membrane using a radioactive filter-binding assay. The binding assay employs STING receptor obtained from Hi-Five cell membranes overexpressing full-length HAQ STING prepared in-house and tritiated cGAMP ligand also purified in-house.
The ability of compounds to bind STING is quantified by their ability to compete with tritiated cGAMP ligand for human STING receptor membrane using a radioactive filter-binding assay. The binding assay employs STING receptor obtained from Trichoplusia ni cell membranes (T. ni; Expression Systems, cat #94-002F, www.exressionsystems.com) overexpressing full-length HAQ STING and tritiated cGAMP ligand.
The basic HAQ STING filtration assay protocol is as follows:
Compound and membrane then preincubated for 60 min at RT to allow compound binding to equilibrate. Following equilibration, 8 nM of [^3H]c-GAMP ligand was prepared by diluting into assay buffer, and 50 uL of this working stock was then manually added to each well of the assay plate. […] The filter plates were then dried at 55° C. for 30 min using a pressurized oven before 30 uL of ULTIMA GOLD F scintillate was added to each well. Tritium levels for each reaction well were then measured using a PerkinElmer TopCount plate reader.
(§1) After normalization to controls, the percent activity for each compound concentration was calculated by measuring the amount of remaining radioactivity. The plot of percent activity versus the log of compound concentration was fit with a 4-parameter dose response equation to calculate EC50 values.

The target of another assay is full-length WT STING (Homo sapiens (Human), UniProt Q86WV6, H232R). The assay is described as follows: 3H-cGAMP filtration binding assay (WT STING). Particulars: for EC50: competition with tritiated cGAMP, WT STING membrane; for inhibition at 20 µM: WT STING, compound at 20 uM.
Description: The ability of compounds to bind STING is quantified by their ability to compete with tritiated cGAMP ligand for human STING receptor membrane using a radioactive filter-binding assay. The binding assay employs STING receptor obtained from Trichoplusia ni cell membranes (T. ni; Expression Systems, cat #94-002F, www.expressionsystems.com) overexpressing full-length WT STING and tritiated cGAMP ligand.
The basic WT STING filtration assay protocol is as follows:
The filter plates were then dried at 55° C. for 30 min using a pressurized VWR oven before 30 uL of ULTIMA GOLD F scintillate was added to each well. Tritium levels for each reaction well were then measured using a PerkinElmer TopCount plate reader.
as §1

The subject of a further assay is THP1 cells. The assay is described as follows: IFN-β secretion in THP1 cell culture (5 h). Type of assay: cell-based, human. Conditions: relative to 30 uM cGAMP. On the procedure:
The ability of compounds to stimulate the secretion of interferon-beta from THP1 cells was measured using a human IFN-3 AlphaLISA kit (Perkin Elmer, Cat. No. AL265F). The basic protocol is as follows:
The cell viability and count was ascertained using a Beckman Coulter V-Cell XR cell counter. The cells suspension was centrifuged at 200×g for 5 min at RT. Cells were resuspended to a density of 0.8×10^6/mL in 37° C. assay medium. Subsequent liquid transfers were performed using either a Matrix electronic multichannel pipette or an Agilent Bravo Automated Liquid Handling Platform.
The assay was started by dispensing 40 μL of the previously prepared cell suspension into the wells of the plate containing compounds. After 5 h incubation at 37° C., 5% CO2 in a humidified atmosphere, the plate of cells and compounds was centrifuged at 200×g for 5 min at RT. […] To these supernatant-containing wells was added 10 μL of 5× Anti-Analyte Acceptor beads ([…] of AlphaLISA HiBlock Buffer) and incubated for 30 min at RT while shaking on an orbital plate shaker. To each well was added 10 μL of 5× Biotinylated Antibody Anti-analyte (5 nM in AlphaLISA HiBlock Buffer) and incubated on an orbital plate shaker for 60 min at RT or overnight at 4° C. To each well was added 25 μL of 2× SA-Donor beads ([…] in AlphaLISA HiBlock Buffer) and incubated for 30-45 min at RT in the dark while shaking on an orbital plate shaker. The plate was then read on a Perkin Elmer Envision (λex=680 nm, […]). The percent effect of the AlphaLISA signal at each compound concentration was calculated based on 30 uM cGAMP positive controls and 0.3% DMSO negative controls. The plot of percent effect versus the log of compound concentration was fit with a 4-parameter concentration response equation to calculate EC50 values.
Compounds of the disclosure were evaluated for IFN-3 secretion in THP1 cell culture as described above.

Sequence of full-length HAQ STING (Q86WV6 other isoform, or with tags, fused parts or gaps, stated change not applied): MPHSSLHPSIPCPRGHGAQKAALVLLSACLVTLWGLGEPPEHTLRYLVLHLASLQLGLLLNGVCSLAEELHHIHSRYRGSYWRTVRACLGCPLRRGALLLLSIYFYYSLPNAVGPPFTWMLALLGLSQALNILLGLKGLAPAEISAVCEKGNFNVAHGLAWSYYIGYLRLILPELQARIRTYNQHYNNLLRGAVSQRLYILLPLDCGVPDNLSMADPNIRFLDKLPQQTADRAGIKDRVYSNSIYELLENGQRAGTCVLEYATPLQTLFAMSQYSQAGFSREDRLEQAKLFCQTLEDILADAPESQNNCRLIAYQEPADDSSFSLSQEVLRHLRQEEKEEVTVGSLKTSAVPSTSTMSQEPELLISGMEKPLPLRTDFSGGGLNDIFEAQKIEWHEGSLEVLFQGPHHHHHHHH
Sequence of full-length WT STING (Q86WV6 other isoform, or with tags, fused parts or gaps H232R (already in the parent)): as the sequence (Q86WV6 other isoform, or with tags, fused parts or gaps, stated change not applied) above, with H71R, A230G, Q293R counted along it

Consider `COc1cc2sc(C(=O)C[C@H](C)C(=O)O)cc2c(F)c1OC` [Example 13, (S)-4-(4-fluoro-5,6-dimethoxybenzo[b]thiophen-2-yl)-2-methyl-4-oxobutanoic acid], for which the EC50 on full-length HAQ STING came to 1.38 µM; on full-length WT STING it was 2.08 µM. Also, the “% Effect at 30 μM relative to 2’3’-cGAMP” value in the assay on THP1 cells worked out at 228%.

Consider `COc1cc2cc(C(=O)C[C@H](C)C(=O)O)sc2cc1Br` [Example 15, (S)-4-(6-bromo-5-methoxybenzo[b]thiophen-2-yl)-2-methyl-4-oxobutanoic acid], for which the EC50 on full-length HAQ STING and at full-length WT STING was 0.894 µM in each case. Also, the “% Effect at 30 μM relative to 2’3’-cGAMP” value in the assay with THP1 cells is given as 115%.

Consider `COc1cc2cc(C(=O)CCC(=O)O)sc2cc1OC` [Example 16, 4-(5,6-dimethoxybenzo[b]thiophen-2-yl)-4-oxobutanoic acid], for which the EC50 at full-length HAQ STING worked out at 1.72 µM; on full-length WT STING, 2.48 µM. Also, the “% Effect at 30 μM relative to 2’3’-cGAMP” value in the assay on THP1 cells stood at 129%.

Turning to `COCC(CC(=O)c1cc2cc(OC)c(OC)cc2s1)C(=O)O` (stereo not drawn) [Example 17, 4-(5,6-Dimethoxybenzo[b]thiophen-2-yl)-2-(methoxymethyl)-4-oxobutanoic acid], the values for the EC50 on full-length HAQ STING and on full-length WT STING were 5.87 µM and 14.8 µM, respectively. Besides, the “% Effect at 30 μM relative to 2’3’-cGAMP” value in the assay with THP1 cells was 21%.

On full-length HAQ STING, `C=Cc1cc2cc(C(=O)CCC(=O)O)sc2cc1OC` [Example 18, 4-(6-Methoxy-5-vinylbenzo[b]thiophen-2-yl)-4-oxobutanoic acid] yielded an EC50 of 12.5 µM. Moreover, the inhibition at 20 µM at full-length WT STING was determined as 21%. Moreover, the “% Effect at 30 μM relative to 2’3’-cGAMP” value with THP1 cells stood at 273%.

On full-length HAQ STING, `COc1cc2sc(C(=O)CCC(=O)O)cc2cc1Br` [Example 19, 4-(5-Bromo-6-methoxybenzo[b]thiophene-2-yl)-4-oxobutanoic acid] showed a concentration giving a half-maximal response (EC50) of 9.7 µM. Moreover, the inhibition at 20 µM at full-length WT STING stood at 30%. In the assay on THP1 cells, the “% Effect at 30 μM relative to 2’3’-cGAMP” value came to 153%.

In turn, `C[C@@H](CC(=O)c1cc2cc(Cl)c(Cl)cc2s1)C(=O)O` [Example 20] returned an EC50 at full-length HAQ STING of 10.7 µM. The molecule further came in with an inhibition at 20 µM on full-length WT STING of 33%. For the same molecule, in the assay with THP1 cells, the “% Effect at 30 μM relative to 2’3’-cGAMP” value is 47%.

As to `CCc1cc2sc(C(=O)C[C@H](C)C(=O)O)cc2cc1OC` [Example 21, (S)-4-(6-Ethyl-5-methoxybenzo[b]thiophen-2-yl)-2-methyl-4-oxobutanoic acid], the figures for the EC50 at full-length HAQ STING and on full-length WT STING were 6.34 µM and 14.3 µM, respectively. Besides, in the assay with THP1 cells, the “% Effect at 30 μM relative to 2’3’-cGAMP” value is recorded as 162%.

For `COc1cc2cc(C(=O)C[C@H](C)C(=O)O)sc2cc1C` [Example 22, (S)-4-(5-methoxy-6-methylbenzo[b]thiophen-2-yl)-2-methyl-4-oxobutanoic acid], the EC50 came to 8.81 µM at full-length HAQ STING and 17.1 µM on full-length WT STING. Further, the “% Effect at 30 μM relative to 2’3’-cGAMP” value in the assay with THP1 cells is recorded as 43%.

At full-length HAQ STING, `COc1cc2cc(C(=O)CCC(=O)O)sc2cc1Cl` [Example 23, 4-(6-Chloro-5-methoxybenzo[b]thiophen-2-yl)-4-oxobutanoic acid] returned an EC50 of 6.05 µM. For the same molecule, the inhibition at 20 µM at full-length WT STING came out at 37%. Further, in the assay with THP1 cells, the “% Effect at 30 μM relative to 2’3’-cGAMP” value is 191%.

Regarding `COc1cc2sc(C(=O)C[C@H](C)C(=O)O)cc2cc1Br` [Example 24, (S)-4-(5-Bromo-6-methoxybenzo[b]thiophen-2-yl)-2-methyl-4-oxobutanoic acid], the results for the EC50 at full-length HAQ STING and on full-length WT STING were 2.64 µM and 8.54 µM, respectively. In addition, the “% Effect at 30 μM relative to 2’3’-cGAMP” value with THP1 cells amounted to 214%.

On full-length HAQ STING, `COc1cc2sc(C(=O)CCC(=O)O)c(Cl)c2cc1OC` [Example 27, 4-(3-chloro-5,6-dimethoxybenzo[b]thiophen-2-yl)-4-oxobutanoic acid] showed an EC50 of 13.2 µM. For the same molecule, the inhibition at 20 µM on full-length WT STING was found to be 19%. Further, in the assay with THP1 cells, the “% Effect at 30 μM relative to 2’3’-cGAMP” value is reported as 14%.

In the case of `COc1cc2sc(C(=O)C[C@H](C)C(=O)O)cc2cc1Cl` [Example 28, (S)-4-(5-chloro-6-methoxybenzo[b]thiophen-2-yl)-2-methyl-4-oxobutanoic acid], the values for the EC50 on full-length HAQ STING and on full-length WT STING were 1.95 µM and 9.26 µM, respectively. For the same molecule, the “% Effect at 30 μM relative to 2’3’-cGAMP” value in the assay on THP1 cells came out at 86%.

In turn, `Cc1cc2cc(C(=O)C[C@H](C)C(=O)O)sc2cc1Br` [Example 29, (S)-4-(6-bromo-5-methylbenzo[b]thiophen-2-yl)-2-methyl-4-oxobutanoic acid] registered an EC50 at full-length HAQ STING of 13.8 µM. Besides, 20 µM produced 16% inhibition at full-length WT STING. Further, the “% Effect at 30 μM relative to 2’3’-cGAMP” value with THP1 cells came to 9%.

For `COc1cc2sc(C(=O)C[C@H](C)C(=O)O)cc2cc1F` [Example 30, (S)-4-(5-fluoro-6-methoxybenzo[b]thiophen-2-yl)-2-methyl-4-oxobutanoic acid], the EC50 worked out at 5.05 µM at full-length HAQ STING and 18.7 µM at full-length WT STING. Moreover, in the assay on THP1 cells, the “% Effect at 30 μM relative to 2’3’-cGAMP” value was determined as 15%.

`C[C@@H](CC(=O)c1cc2cc(Cl)c(Br)cc2s1)C(=O)O` [Example 32, (S)-4-(6-bromo-5-chlorobenzo[b]thiophen-2-yl)-2-methyl-4-oxobutanoic acid]: the EC50 on full-length HAQ STING came out at 3.63 µM; at full-length WT STING it was 17 µM. Besides, the “% Effect at 30 μM relative to 2’3’-cGAMP” value in the assay on THP1 cells came to 24%.

Take `CCOc1cc2sc(C(=O)C[C@H](C)C(=O)O)cc2cc1Cl` [Example 33, (S)-4-(5-chloro-6-ethoxybenzo[b]thiophen-2-yl)-2-methyl-4-oxobutanoic acid]: on full-length HAQ STING, the EC50 is 6.46 µM. The molecule further returned an inhibition at 20 µM at full-length WT STING of 30%. In the assay on THP1 cells, the “% Effect at 30 μM relative to 2’3’-cGAMP” value is listed as 25%.

For the molecule `Cc1cc2sc(C(=O)C[C@H](C)C(=O)O)cc2cc1Br` [Example 34, (S)-4-(5-bromo-6-methylbenzo[b]thiophen-2-yl)-2-methyl-4-oxobutanoic acid], the EC50 at full-length HAQ STING turned out to be 10.4 µM. For the same molecule, 20 µM produced 18% inhibition at full-length WT STING. In addition, the “% Effect at 30 μM relative to 2’3’-cGAMP” value with THP1 cells worked out at 34%.

Turning to `COc1cc2cc(C(=O)CC(C)C(=O)O)sc2cc1OC` (stereo not drawn) [Example 35, 4-(5,6-dimethoxybenzo[b]thiophen-2-yl)-2-methyl-4-oxobutanoic acid], the EC50 at full-length HAQ STING was found to be 5.55 µM; on full-length WT STING it was 7.67 µM. Also, in the assay with THP1 cells, the “% Effect at 30 μM relative to 2’3’-cGAMP” value came out at 57%.

Turning to `C#Cc1cc2cc(C(=O)CCC(=O)O)sc2cc1OC` [Example 36, 4-(5-Ethynyl-6-methoxybenzo[b]thiophen-2-yl)-4-oxobutanoic acid], at full-length HAQ STING, the EC50 was 14.4 µM. The molecule further returned an inhibition at 20 µM at full-length WT STING of 9%. In the assay on THP1 cells, the “% Effect at 30 μM relative to 2’3’-cGAMP” value is recorded as 11%.

`C=Cc1cc2cc(C(=O)C[C@H](C)C(=O)O)sc2cc1OC` [Example 41, (S)-4-(6-methoxy-5-vinylbenzo[b]thiophen-2-yl)-2-methyl-4-oxobutanoic acid]: the EC50 came to 5.7 µM on full-length HAQ STING and 14.7 µM at full-length WT STING. The “% Effect at 30 μM relative to 2’3’-cGAMP” value in the assay with THP1 cells was found to be 312%.

As to `COc1cc2cc(C(=O)C[C@H](C)C(=O)O)sc2cc1O` [Example 43, (S)-4-(6-hydroxy-5-methoxybenzo[b]thiophen-2-yl)-2-methyl-4-oxobutanoic acid], the results for the EC50 at full-length HAQ STING and on full-length WT STING were 1.2 µM and 4.11 µM, respectively. Further, the “% Effect at 30 μM relative to 2’3’-cGAMP” value in the assay with THP1 cells was determined as 56%.
